# Source: patent publication US9029360B2, “Pyrazolopyrimidines as metabotropic glutamate 5 receptor antagonists” (Boehringer Ingelheim International GmbH, priority 2012, dated 2015)
# How the values were obtained:
# [1] = biological target: human mGlu5a receptor (Homo sapiens (Human), UniProt P41594); assay: mGlu5 NAM FLIPR Assay (Assay 1); format: cell-based; conditions: for IC50: HEK293 cells stably expressing human mGlu5a, antagonism of EC90 glutamate, [Ca]i
# Description: A. mGlu5 NAM FLIPR Assay (Assay 1)
# Activation of the mGluR5 receptor expressed in cell lines results in an increase in intracellular calcium concentration. Using calcium sensitive fluorescent dyes and a suited fluorescence plate reader this functional response is detectable and quantifiable. This technique could be used to characterize pharmacological modifications of the mGluR5 receptor.
# [Ca]i measurements were performed in HEK293 cells stably expressing the full-length human mGlu5a receptor under the control of a tet-regulated promoter. Cells were cultivated in Dulbecco's modified eagle's medium (DMEM) with 10% fetal calf serum, 100 μg/ml HygromycinB, 500 μg/ml G418 and 2 μg/ml Tetracycline in a 37°, 95% humidity and 5% CO2 incubator. Confluent cell cultures were split on a bi-weekly schedule.
# 72 hours prior to the assay run mGluR5a expression was induced by replacing the culture medium by DMEM with 10% fetal calf serum without antibiotics. 24 hours prior to the assay run, cell medium was replaced after two wash steps by DMEM, 10% fetal calf serum without glutamine and phenol red. On the assay day, cells were detached from the culture flask by versene, washed, resuspended in a modified Ringer solution with 5 mM Glucose and 10 mM HEPES pH7.4, and plated on Poly-D-Lysine coated 384-well plates with a density of 10.000 cells/60 μl per well. After a seeding time of 1 hour in the incubator the cells were dye-loaded by adding 20 μl of a 4-fold concentrated dye solution from the Calcium 4 kit (Molecular Devices Inc., R8141) according to the manufacturer's manual and incubated for an additional 100 minutes. Compounds were prepared by a 11 point serial dilution in DMSO and a final dilution step into assay puffer (modified Ringer) to ensure a final DMSO concentration of 1% in the assay.
# Measurements were done in a two-step procedure. A first measurement was performed directly after the addition of compounds to the cell plates to quantify and correct for compound related non specific effects (e.g. auto fluorescence). 5 minutes later, the antagonistic activities of the compounds were measured by addition of a EC90 concentration of the agonist glutamate (the EC90 concentration was controlled by glutamate dose-response curves). All measurements were done with a fluorimetric imaging plate reader (FLIPR, Molecular Devices Inc.).
# IC50 values and Hill slopes were derived from 11-point four parametric non-linear curve fittings with the AssayExplorer software using peak heights of fluorescence signals.
# [2] = biological target: 11β-HSD1 (Homo sapiens (Human), UniProt P28845); assay: 11β-hydroxysteroid dehydrogenase (HSD) 1 Assay (Assay 2), HTRF; format: biochemical; conditions: for IC50: human liver microsomes, cortisol generated from cortisone, HTRF, read-out: 11βHSD1 IC50
# Description: The compounds of this invention or the physiological acceptable salts thereof were tested for their inhibitory effect on the enzyme 11β-hydroxysteroid dehydrogenase (HSD) 1.
# B. 11β-hydroxysteroid dehydrogenase (HSD) 1 Assay (Assay 2)
# Compounds were incubated for 1 hour at 37° C. in Tris buffer (20 mM tris, 5 mM EDTA, pH 6.0) containing NADPH (200 μM) and cortisone (80 nM). Cortisol generated in the reaction was then detected by a competitive immunoassay involving two HTRF conjugates: cortisol linked to XL665 and anticortisol antibody labeled with Europium cryptate. The incubation period for detection reaction was 2 hours. The amount of cortisol is determined by reading the time-resolved fluorescence of the wells (Ex 320/75 nm; Em 615/8.5 nm and 665/7.5 nm). The ratio of the two emission signals was then calculated (Em665*10000/Em615). […] Each assay also comprised a calibration curve with cortisol to transform the fluorescent data into cortisol concentrations.
# Percent inhibition (% CTL) of each compound is determined relative to the carbenoxolone signal and IC50 curves were generated.
# Sequence of 11β-HSD1 (P28845 whole entry): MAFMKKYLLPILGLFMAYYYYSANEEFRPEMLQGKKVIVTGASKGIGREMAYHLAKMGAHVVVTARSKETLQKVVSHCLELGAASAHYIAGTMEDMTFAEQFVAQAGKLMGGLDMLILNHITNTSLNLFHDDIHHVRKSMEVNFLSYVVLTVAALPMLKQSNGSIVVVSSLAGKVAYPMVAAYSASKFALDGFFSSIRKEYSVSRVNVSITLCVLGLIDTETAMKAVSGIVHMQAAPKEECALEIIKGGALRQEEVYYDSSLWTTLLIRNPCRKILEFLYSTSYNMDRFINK
# Sequence of human mGlu5a receptor (P41594 other isoform, or with tags, fused parts or gaps): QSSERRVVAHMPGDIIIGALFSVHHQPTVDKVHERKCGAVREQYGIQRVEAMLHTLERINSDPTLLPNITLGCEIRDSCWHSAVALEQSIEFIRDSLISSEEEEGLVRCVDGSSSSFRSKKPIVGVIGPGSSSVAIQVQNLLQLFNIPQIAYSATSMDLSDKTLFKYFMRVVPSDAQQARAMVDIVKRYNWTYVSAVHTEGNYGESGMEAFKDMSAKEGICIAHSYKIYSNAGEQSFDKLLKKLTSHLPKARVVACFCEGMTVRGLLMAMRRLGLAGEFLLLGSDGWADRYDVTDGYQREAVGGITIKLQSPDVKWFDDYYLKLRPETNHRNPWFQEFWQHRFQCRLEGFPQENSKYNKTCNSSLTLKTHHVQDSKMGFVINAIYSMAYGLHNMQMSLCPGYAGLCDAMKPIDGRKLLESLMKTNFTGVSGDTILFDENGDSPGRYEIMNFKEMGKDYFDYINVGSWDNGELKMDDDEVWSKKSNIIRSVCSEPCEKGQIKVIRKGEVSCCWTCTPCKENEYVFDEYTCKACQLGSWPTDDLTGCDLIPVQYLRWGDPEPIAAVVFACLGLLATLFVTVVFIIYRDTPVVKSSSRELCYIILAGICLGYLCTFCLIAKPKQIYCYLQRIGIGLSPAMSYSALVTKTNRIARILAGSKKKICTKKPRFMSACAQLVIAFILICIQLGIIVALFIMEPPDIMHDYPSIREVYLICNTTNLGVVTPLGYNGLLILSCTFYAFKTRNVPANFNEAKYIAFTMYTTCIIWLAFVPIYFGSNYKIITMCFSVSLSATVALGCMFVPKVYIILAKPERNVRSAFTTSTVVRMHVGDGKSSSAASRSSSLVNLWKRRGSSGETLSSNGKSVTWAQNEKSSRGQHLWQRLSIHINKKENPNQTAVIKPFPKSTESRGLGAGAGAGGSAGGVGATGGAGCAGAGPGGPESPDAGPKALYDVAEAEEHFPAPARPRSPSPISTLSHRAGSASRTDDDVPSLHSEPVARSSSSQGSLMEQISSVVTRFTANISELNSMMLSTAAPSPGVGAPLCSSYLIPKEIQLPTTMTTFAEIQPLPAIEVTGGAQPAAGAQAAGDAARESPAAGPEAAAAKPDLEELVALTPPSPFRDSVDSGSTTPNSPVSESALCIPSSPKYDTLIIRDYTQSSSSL
Compound,"activity in assay 1 (mGlu5), in words [1]",IC50 [1] [nM],"activity on 11βHSD1 (assay 2), in words [2]",IC50 [2] [nM]
"O=C(c1cc2ncc(Br)cn2n1)N1CCCC1 [A, reference compound]",inactivity,> 10000,inactivity,–
"COc1ccc(-c2cc(C(F)(F)F)n3nc(C(=O)N4CCc5ncsc5CC4)cc3n2)cc1 [C, reference compound]",–,> 10000,–,> 10000
"Cc1cc(C(F)(F)F)n2nc(C(=O)N3CCc4ncsc4CC3)cc2n1 [D, reference compound]",–,> 10000,–,> 10000
"O=C(c1cc2ncc(Br)cn2n1)N1CCc2ccc(Cl)nc2CC1 [Example 1, (6-Bromo-pyrazolo[1,5-a]pyrimidin-2-yl)-(2-chloro-5,6,8,9-tetrahydro-pyrido[2,3-d]azepin-7-yl)-methanone]",–,146,–,> 10000
"COc1ccc2c(n1)CCN(C(=O)c1cc3ncc(Br)cn3n1)CC2 [Example 2, (6-Bromo-pyrazolo[1,5-a]pyrimidin-2-yl)-(2-methoxy-5,6,8,9-tetrahydro-pyrido[2,3-d]azepin-7-yl)-methanone]",–,230,–,> 10000
"O=C(c1cc2ncc(Br)cn2n1)N1CCCCC1 [Example 4-21, reference compound]",–,> 10000,–,> 10000
"O=C(c1cc2ncc(Br)cn2n1)N1CCOCC1 [Example 4-22, reference compound]",–,> 10000,–,> 10000
"COCc1nc2c(s1)CCN(C(=O)c1cc3ncc(Br)cn3n1)CC2 [Example 8, (6-Bromo-pyrazolo[1,5-a]pyrimidin-2-yl)-(2-methoxymethyl-4,5,7,8-tetrahydro-thiazolo[4,5-d]azepin-6-yl)-methanone]",–,1540,–,> 10000
Cc1cnc2cc(C(=O)N3CCc4ncsc4CC3)nn2c1 [Example 9],–,1420,–,> 10000
"O=C(c1cc2ncc(Cl)cn2n1)N1CCc2ncsc2CC1 [Example 10, (6-Chloro-pyrazolo[1,5-a]pyrimidin-2-yl)-(4,5,7,8-tetrahydro-thiazolo[4,5-d]azepin-6-yl)-methanone]",–,59,–,> 10000
"O=C(c1cc2ncc(Br)cn2n1)N1CCc2[nH]c(=O)sc2CC1 [Example 11, 6-(6-Bromo-pyrazolo[1,5-a]pyrimidine-2-carbonyl)-3,4,5,6,7,8-hexahydro-thiazolo[4,5-d]azepin-2-one]",–,66,–,> 10000
"CC(C)c1nc2c(s1)CCN(C(=O)c1cc3ncc(Br)cn3n1)CC2 [Example 12, (6-Bromo-pyrazolo[1,5-a]pyrimidin-2-yl)-(2-isopropyl-4,5,7,8-tetrahydro-thiazolo[4,5-d]azepin-6-yl)-methanone]",–,148,–,> 10000
"O=C(c1cc2ncc(Br)cn2n1)N1CCc2cccnc2CC1 [Example 14, (6-Bromo-pyrazolo[1,5-a]pyrimidin-2-yl)-(5,6,8,9-tetrahydro-pyrido[2,3-d]azepin-7-yl)-methanone]",–,603,–,> 10000
"Cn1cnc2c1CCN(C(=O)c1cc3ncc(Br)cn3n1)CC2 [Example 15, (6-Bromo-pyrazolo[1,5-a]pyrimidin-2-yl)-(1-methyl-4,5,7,8-tetrahydro-1H-imidazo[4,5-d]azepin-6-yl)-methanone]",–,692,–,> 10000
"Cn1c2c(sc1=O)CCN(C(=O)c1cc3ncc(Br)cn3n1)CC2 [Example 16, 6-(6-Bromo-pyrazolo[1,5-a]pyrimidine-2-carbonyl)-3-methyl-3,4,5,6,7,8-hexahydro-thiazolo[4,5-d]azepin-2-one]",–,1280,–,> 10000
"Cn1c2c(c3ccccc31)CCN(C(=O)c1cc3ncc(Br)cn3n1)CC2 [Example 17, (6-Bromo-pyrazolo[1,5-a]pyrimidin-2-yl)-(6-methyl-1,4,5,6-tetrahydro-2H-azepino[4,5-b]indol-3-yl)-methanone]",–,550,–,> 10000
"(6-Bromo-pyrazolo[1,5-a]pyrimidin-2-yl)-(2-methyl-4,5,7,8-tetrahydro-3H-1lambda*4*-thiazolo[4,5-d]azepin-6-yl)-methanone [Example 6]",–,43,–,> 10000

# Now from value to compound:
"activity in assay 1 (mGlu5), in words [1]",IC50 [1] [nM],"activity on 11βHSD1 (assay 2), in words [2]",IC50 [2] [nM],Compound
inactivity,> 10000,inactivity,> 10000,"O=C(c1cc2ncc(Br)cn2n1)N1CCCCCC1 [B, reference compound]"
–,> 10000,–,> 10000,"COc1cccc(-c2cc(C(F)(F)F)n3nc(C(=O)N4CCc5ncsc5CC4)cc3n2)c1 [E, reference compound]"
–,1380,–,> 10000,"O=C(c1cc2ncc(Br)cn2n1)N1CCc2ccsc2CC1 [Example 3, (6-Bromo-pyrazolo[1,5-a]pyrimidin-2-yl)-(4,5,7,8-tetrahydro-thieno[2,3-d]azepin-6-yl)-methanone]"
–,33,–,> 10000,"CCc1nc2c(s1)CCN(C(=O)c1cc3ncc(Br)cn3n1)CC2 [Example 4, (6-Bromo-pyrazolo[1,5-a]pyrimidin-2-yl)-(2-ethyl-4,5,7,8-tetrahydro-thiazolo[4,5-d]azepin-6-yl)-methanone]"
–,110,–,> 10000,"O=C(c1cc2ncc(Br)cn2n1)N1CCc2ncsc2CC1 [Example 5, (6-Bromo-pyrazolo[1,5-a]pyrimidin-2-yl)-(4,5,7,8-tetrahydro-thiazolo[4,5-d]azepin-6-yl)-methanone]"
–,340,–,> 10000,"O=C(c1cc2ncc(Br)cn2n1)N1CCc2cc(Cl)nnc2CC1 [Example 7, (6-Bromo-pyrazolo[1,5-a]pyrimidin-2-yl)-(3-chloro-5,6,8,9-tetrahydro-1,2,7-triaza-benzocyclohepten-7-yl)-methanone]"
–,63,–,> 10000,"Cc1nc2c(s1)CCN(C(=O)c1cc3ncc(Cl)cn3n1)CC2 [Example 13, (6-Chloro-pyrazolo[1,5-a]pyrimidin-2-yl)-(2-methyl-4,5,7,8-tetrahydro-thiazolo[4,5-d]azepin-6-yl)-methanone]"
–,235,–,–,"CC(C)c1nc2c(s1)CCN(C(=O)c1cc3ncc(Cl)cn3n1)CC2 [Example 18, (6-Chloro-pyrazolo[1,5-a]pyrimidin-2-yl)-(2-isopropyl-4,5,7,8-tetrahydro-thiazolo[4,5-d]azepin-6-yl)-methanone]"
–,128,–,–,"O=C(c1cc2ncc(Cl)cn2n1)N1CCc2[nH]c(=O)sc2CC1 [Example 19, 6-(6-Chloro-pyrazolo[1,5-a]pyrimidine-2-carbonyl)-3,4,5,6,7,8-hexahydro-thiazolo[4,5-d]azepin-2-one]"
